Assay results: US10512627B2, “Anti-tumor compound and the medical use thereof” (Tianjin Medical University Cancer Institute and Hospital, priority 2014, dated 2019)

Columns and labels:
[1] = tested on: human breast cancer cell MDA-MB-231; experiment: Scratch assay, migration of MDA-MB-231 (Example 3); format: cell-based; conditions: 0.5, 1, 2, 4 μmol/L, 0-24 h
Description: The inhibiting ability of (S)2-(4′-methyl-3′-nitrobenzoylamino)-3-phenylpropionic acid for the migration of human breast cancer cell MDA-MB-231 was tested by scratch assay.
The MDA-MB-231 cells in logarithmic growth phase were plated in the 6-well plate with the density of 1×10^6/3 mL, and the drug was added after 12 h, with 100 μL per well. The final concentrations of (S)2-(4′-methyl-3′-nitrobenzoylamino)-3-phenylpropionic acid (TCI04) were 0.5, 1, 2, and 4 μmol/L, respectively. The negative control was 100 μL sterilized water with 2% DMSO and the positive control was 1 μmol/L 4-methyl-3-nitrobenzoic acid (TCI01). After 12 h, the culture medium was removed, and the plate was washed 3 times with PBS, and 3 ml culture medium without fetal bovine serum and 100 μL drug (concentration was the same as above) per well were added. 12 h later, 10 μL tips were used to scratch, and after washing 4 times with PBS, 3 ml culture medium without fetal bovine serum per well was added. The distance of cell migration was recorded every 3 h under the inverted microscope, and the photos were taken at 0 h and 24 h.

[2] = tested on: human lung adenocarcinoma cell A549; experiment: Scratch test, migration of A549 (Example 4); format: cell-based; conditions: 4 and 100 μmol/L, 0-36 h
Description: The inhibiting ability of (S)2-(4′-methyl-3′-nitrobenzoylamino)-3-phenylpropionic acid for the migration of human lung adenocarcinoma cell A549 was tested by scratch test.
A549 cells in logarithmic growth phase were plated in the 6-well plate with the density of 5×10^5/3 mL, and after 12 h, the drug was added, with 100 μL per well. The final concentrations of (S)2-(4′-methyl-3′-nitrobenzoylamino)-3-phenylpropionic acid (TCI04) were 4 and 100 μmol/L respectively. The negative control was 100 μL sterilized water with 2% DMSO and the positive control was 4, 100 μmol/L 4-methyl-3-nitrobenzoic acid (TCI01). After 36 h, the medium was removed, and after washing 3 times with PBS, 3 ml culture medium without fetal bovine serum and 100 μL drug (concentration was as above) per well were added. 6 h later, 200 μL tips were used to scratch, and after washing 4 times with PBS, 3 ml medium without fetal bovine serum per well was added. The distance of cell migration was recorded every 3 h under the inverted microscope, and photos were taken at 0 h and 36 h.

[3] = tested on: human breast cancer cell MDA-MB-231; experiment: Transwell invasion assay through Matrigel (Example 5); format: cell-based
Description: The inhibiting ability of (S)2-(4′-methyl-3′-nitrobenzoylamino)-3-phenylpropionic acid for the invasion of human breast cancer cell MDA-MB-231 was tested by Transwell invasion assay.
1) Gel placement into the Transwell chamber: Matrigel was melted under ice-bath of 4° C. overnight, and diluted with pre-cooled serum free DMEM medium at a ratio of 1:3. Transwell chamber was put in the 24-well plate, and 50 μL gel solution was added per chamber, stayed at 37° C. for 1 h, then 200 μL serum free DMEM medium was added and stayed for 15 min to make the gel reconstitute, and finally the medium was removed for stand-by;
2) MDA-MB-231 cells in logarithmic growth phase were plated in 6-well plate with the density of 1×10^6/3 mL, and after 12 h, the drug was added, with 100 μL per well. The final concentrations of (S)2-(4′-methyl-3′-nitrobenzoylamino)-3-phenylpropionic acid were 1, 2, and 4 μmol/L, respectively. The negative control was 100 μL sterilized water with 2% DMSO and the positive control was 1 μmol/L 4-methyl-3-nitrobenzoic acid. After 12 h, the medium was removed, followed by washing 3 times with PBS, and 3 ml medium without fetal bovine serum and 100 μL drug (concentration is as above) per well were added. […] The cell number was counted and the cells were seeded at the density of 2×10^5/200 μL into the Transwell chamber with the Matrigel. […]

[4] = tested on: B16 melanoma cells; experiment: Artificial metastasis model of B16 mice melanoma (Example 6); format: in vivo, C57BL/6 mouse
Description: 3) An metastasis model of B16 mouse melanoma is constructed by direct injection of B16 cells into tail vein in C57BL/6 mouse, and the ability of a drug for inhibiting tumor metastasis is determined by counting the number of the metastatic tumors on lung. Such a model mimics the metastatic process of cancer cells from the circulatory system to the target organ, which is more similar with the metastatic way of tumor cells in the bodies of patients with advanced cancer.
The ability of (S)2-(4′-methyl-3′-nitrobenzoylamino)-3-phenylpropionic acid for inhibiting tumor metastasis in vivo was tested by artificial metastasis model of B16 mice melanoma.
1) Mice grouping: C57BL/6 of SPF grade, 5 weeks old, 18˜22 g, 8 mice for each group, half male and half female;
2) The mother liquid of (S)2-(4′-methyl-3′-nitrobenzoylamino)-3-phenylpropionic acid for the dosage form administrated by intravenous injection was diluted to 0.8 mg/mL, 0.2 mg/mL, 0.05 mg/mL by adding sterilized water. […]
3) B16 cells in logarithmic growth phase were digested with 0.05% typsine for 1 min, and after centrifugation at 1000 rpm for 5 min, the supernatant was discarded and the cells were resuspended and counted. […]
5) After the completion of the experiment, the mice were sacrificed and the lungs were taken, the number and size of melanomas on the lungs was counted, and the weight of the lungs were weighed;

Cc1ccc(C(=O)N[C@@H](Cc2ccccc2)C(=O)O)cc1[N+](=O)[O-] [(S)2-(4′-methyl-3′-nitrobenzoylamino)-3-phenylpropionic acid]
inhibition of migration ability (coalescence speed of cell scratch vs negative control) [1]: significantly inhibited
inhibition of migration ability (coalescence speed of cell scratch vs negative control) [2]: significantly inhibited
invaded cell number compared to the negative control ([3]; 1, 2, 4 μmol/L, 24 h, P<0.01): significantly less than the negative control
invaded cell number compared to the positive control (1 μmol/L 4-methyl-3-nitrobenzoic acid) ([3]; 2, 4 μmol/L, P>0.05): no significant difference
tumor numbers on the lungs and lung weights compared with the negative control ([4]; 8, 2, 0.5 mg/kg tail vein, twice a day, 21 days, P<0.01): very significant difference
inhibition of metastasis of B16 mouse melanoma cell in C57BL/6 mouse ([4]; tail vein administration of 0.5 mg/kg): significantly inhibit
